{"source": "patent US20190046662A1", "about": "“Compositions and Methods for Treating Neuropathic Pain” (Rutgers, The State University of New Jersey, priority 2016, published 2019)", "assay_type_in_all_cases": "in vivo, rat", "key": {"hSyn-hM4D [1]": {"biological_target": "T1, hSyn-hM4D (Homo sapiens, UniProt P08173, A203G/Y113C)", "T1 construct": "expressed in transfected cells; host or cells: rat trigeminal ganglion neurons in vivo, viral vector with synapsin promoter", "T1 sequence (P08173 1-479 Y113C/A203G)": "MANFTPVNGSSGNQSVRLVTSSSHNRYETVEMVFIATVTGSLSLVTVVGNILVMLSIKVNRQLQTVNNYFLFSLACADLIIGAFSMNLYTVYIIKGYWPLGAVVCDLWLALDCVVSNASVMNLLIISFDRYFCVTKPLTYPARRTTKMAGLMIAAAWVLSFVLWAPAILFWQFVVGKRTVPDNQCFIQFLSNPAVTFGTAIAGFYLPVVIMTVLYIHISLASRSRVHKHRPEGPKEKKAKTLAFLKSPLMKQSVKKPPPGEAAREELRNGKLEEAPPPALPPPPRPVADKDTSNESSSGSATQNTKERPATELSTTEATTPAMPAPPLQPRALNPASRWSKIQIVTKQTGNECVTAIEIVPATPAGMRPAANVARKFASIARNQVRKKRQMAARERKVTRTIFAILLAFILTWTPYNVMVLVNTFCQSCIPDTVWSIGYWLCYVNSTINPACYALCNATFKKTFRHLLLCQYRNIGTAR", "assay": "Face grooming after s.c. formalin into right upper lip, synapsin-DREADD (hSyn-hM4D)", "settings": "n=7 per group, vs vehicle", "experimental": "(§1) The effects of synapsin-DREADD activation with CNO on face grooming activity observed after subcutaneous (s.c.) injection of formalin into the right upper lip were also studied (FIG. 5). The mean number of seconds that rats (males, n=7 per group; females, n=7 per group) spent grooming (±SEM) is plotted for the 45 minutes post-formalin injection observation period. All animals had synapsin-DREADD (hSyn-hM4D) injected into the right trigeminal ganglion. CNO or vehicle was delivered intraperitoneally 30 minutes prior to the s.c. injection of 1.5% formalin (50 μl) into the right upper lip (ipsilateral side), just lateral to the nose."}, "hSyn-hM4D [2]": {"biological_target": "T1, hSyn-hM4D", "assay": "von Frey detection threshold, synapsin-DREADD (hSyn-hM4D) in right trigeminal ganglion, non-CCI animals", "settings": "n=7 per group, CNO i.p. vs vehicle", "text": "The effects of synapsin-DREADD activation with CNO on von Frey detection threshold were studied (FIG. 3). The von Frey assay uses von Frey fibers, which are small pieces of nylon rod of varying diameters, to test a rodent's sensitivity to a mechanical stimulus. The von Frey assay is generally considered a mechanical nociceptive threshold test. All animals (males, n=7 per group; females, n=7 per group) had synapsin-DREADD (hSyn-hM4D; synapsin promoter driven DREADD) injected into the right trigeminal ganglion. Average von Frey detection thresholds (±SEM) were plotted following intraperitoneal (i.p.) administration of CNO or vehicle."}, "hSyn-hM4D [3]": {"biological_target": "T1, hSyn-hM4D", "assay": "Pin-prick response score, synapsin-DREADD (hSyn-hM4D) in right trigeminal ganglion, non-CCI animals", "settings": "n=7 per group, CNO i.p. vs vehicle", "text": "The effects of synapsin-DREADD activation with CNO on pin-prick response score were also studied (FIG. 4). The pin-prick assay is generally considered a nociceptive threshold test. All animals (males, n=7 per group; females, n=7 per group) had synapsin-DREADD (hSyn-hM4D) injected into the right trigeminal ganglion. Average pin-prick response scores (±SEM) are plotted following intraperitoneal (i.p.) administration of CNO or vehicle."}, "hTac1-hM4D [4]": {"biological_target": "T2, hTac1-hM4D (Homo sapiens, UniProt P08173, A203G/Y113C)", "T2 construct": "expressed in transfected cells; host or cells: rat trigeminal ganglion neurons in vivo, viral vector with Tac1 promoter", "T2 sequence (P08173 1-479 Y113C/A203G)": "T1 sequence (P08173 1-479 Y113C/A203G)", "assay": "Face grooming after s.c. formalin into right upper lip, Tac1-DREADD (hTac1-hM4D)", "settings": "females, n=7 per group, vs vehicle", "experimental": "as §1, with “Tac1-DREADD” for “synapsin-DREADD”, “s.c.” for “subcutaneous (s.c.)”, “9).” for “5).”, “(females,” for “(males, n=7 per group; females,”, “Tac1-DREADD (hTac1-hM4D)” for “synapsin-DREADD (hSyn-hM4D)”, “i.p.” for “intraperitoneally”"}, "hTac1-hM4D [5]": {"biological_target": "T2, hTac1-hM4D", "assay": "Pain-like behavior after IoN-CCI, Tac1-DREADD (hTac1-hM4D)", "settings": "IoN-CCI males", "text": "For the infraorbital nerve chronic constriction injury (ION-CCI), ˜0.5 cm of the infraorbital nerve will be freed and two chromic gut ligatures will be loosely tied around it (2 mm apart) prior to closure of the incision (all performed under ketamine/xylazine anesthesia). As a control, other rats will undergo sham surgery where the infraorbital nerve is exposed but left untouched. This model results in persistent pain beginning at about 2 weeks postoperatively and lasting at least 3 weeks (Benoliel et al. (2001) Neurosci. Lett., 297:151-4; Benoliel et al. (2002) Pain 97:203-12), allowing for the assessment of the effect of vehicle vs CNO/DREADD-mediated inhibition of TG neurons on this behavior at multiple time points. Fos expression and cAMP levels may also be measured in the TG to correlate these molecular endpoints to behavioral effects of DREADD activation. The rats will also undergo repeated stimulation with a 2-g von Frey hair applied to the hairy skin of the vibrissae on the operated side to induce Fos (Vos et al. (1995) J. Comp. Neurol., 357:362-75). Activation of hM4Di receptors will reduce Fos in the TG following von Frey stimulation.\nThe effects of Tac1-DREADD activation with CNO on pain-like behavior following IoN-CCI were studied (FIG. 10). The mean von Frey detection thresholds (±SEM) (left) and the mean response scores (±SEM) (right) to the pin-prick stimulation applied to the vibrissal pads were plotted. All animals (males, n=7 per group) were exposed to the infraorbital nerve chronic constriction injury (IoN-CCI) unilaterally. Following IoN-CCI, all animals had tachykinin 1-DREADD (hTac1-hM4D) injected into the ipsilateral trigeminal ganglion. At post-operative day 26 (D26) CNO or vehicle was delivered intraperitoneally 30 minutes prior to behavioral testing."}, "[6]": {"settings": "Tac1-DREADD study (sentence prints hSyn-hM4D), CNO i.p. at D26"}}}
{"smiles": "C[N+]1([O-])CCN(C2=Nc3cc(Cl)ccc3Nc3ccccc32)CC1", "note": "[CNO, clozapine N-oxide]", "values": [{"measurement": "total face grooming time, tonic phase (12-45 minutes post formalin injection)", "setting": "hSyn-hM4D [1]; females, CNO i.p. 30 min prior to formalin, F=5.5, P=0.02", "result": "significantly reduced"}, {"measurement": "total face grooming time, tonic phase (12-45 minutes post formalin injection)", "setting": "hSyn-hM4D [1]; males, CNO i.p. 30 min prior to 1.5% formalin (50 μl) s.c., F=27.1, P<0.0001", "result": "significantly reduced"}, {"measurement": "total face grooming time, acute phase (0-6 minutes post formalin injection)", "setting": "hSyn-hM4D [1]; males, CNO i.p. 30 min prior to formalin, F=4.5, P=0.04", "result": "significant reduction"}, {"measurement": "von Frey detection threshold, ipsilateral vibrissal pad", "setting": "hSyn-hM4D [2]; females, D28, 30 min after CNO, F=1.2, P=0.3", "result": "no significant effect"}, {"measurement": "von Frey detection threshold, contralateral vibrissal pad", "setting": "hSyn-hM4D [2]; females, F=2.8, P=0.1", "result": "no significant effect"}, {"measurement": "von Frey detection threshold, contralateral vibrissal pad", "setting": "hSyn-hM4D [2]; males, F=1.2, P=0.3", "result": "no significant effect"}, {"measurement": "von Frey detection threshold, ipsilateral vibrissal pad", "setting": "hSyn-hM4D [2]; males, F=3.3, P=0.1", "result": "no significant effect"}, {"measurement": "pin-prick response score, contralateral side", "setting": "hSyn-hM4D [3]; females, F=0.1, P=0.7", "result": "no significant effect"}, {"measurement": "pin-prick response score, ipsilateral side", "setting": "hSyn-hM4D [3]; females, F=0.1, P=0.8", "result": "no significant effect"}, {"measurement": "pin-prick response score, contralateral (left) vibrissal pad", "setting": "hSyn-hM4D [3]; males, F=1.3, P=0.3", "result": "No significant effect"}, {"measurement": "pin-prick response score, ipsilateral (right) vibrissal pad", "setting": "hSyn-hM4D [3]; males, F=9.8, P=0.01", "result": "significantly reduced"}, {"measurement": "total face grooming time, acute phase (0-6 minutes post formalin injection)", "setting": "hTac1-hM4D [4]; CNO i.p. 30 min prior to 1.5% formalin (50 μl) s.c., F=0.07, P=0.8", "result": "no significant effect"}, {"measurement": "total face grooming time, tonic phase (12-45 minutes post formalin injection)", "setting": "hTac1-hM4D [4]; CNO i.p. 30 min prior to formalin, F=1.6, P=0.2", "result": "no significant effect"}, {"measurement": "von Frey detection threshold, ipsilateral side, compared to vehicle treated animals", "setting": "hTac1-hM4D [5]; n=7 per group, hTac1-hM4D, CNO i.p. at D26, 30 min prior to testing, F=6.3, P=0.03", "result": "significantly increased"}, {"measurement": "pin-prick response score, ipsilateral vibrissal pad, compared to vehicle treated animals", "setting": "hTac1-hM4D [5]; n=7 per group, hTac1-hM4D, CNO i.p. at D26, F=8.6, P=0.01", "result": "significantly decreased"}, {"measurement": "pin-prick response score, contralateral side", "setting": "hTac1-hM4D [5]; [6]", "result": "No significant effects"}, {"measurement": "von Frey detection threshold, contralateral side", "setting": "hTac1-hM4D [5]; [6]", "result": "No significant effects"}, {"measurement": "pin-prick response score, ipsilateral side, compared to post-operative days 21 and 27", "setting": "hTac1-hM4D [5]; hTac1-hM4D, CNO i.p. at D26, D21 F=18.9, P=0.0003, D27 F=16.9, P=0.0006", "result": "significantly decreased"}, {"measurement": "von Frey detection threshold, ipsilateral side, compared to post-operative days 21 and 27", "setting": "hTac1-hM4D [5]; hTac1-hM4D, CNO i.p. at D26, D21 F=31.4, P<0.0001, D27 F=9.8, P=0.006", "result": "significantly increased"}]}
